Legend:
Conditions in all cases: 48 h
[1] = system: NOMO1; assay: cell viability relative to DMSO control; higher = less cytotoxic
Outline: (§1)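 Library compounds in DMSO were pin-dosed in an 11-point threefold series (47 μM to 0.79 nM) onto leukemia cells in 1536-well plates (5 μl). Plates held 500 cells/well of NOMO1 or SEM or 1000 cells/well of P12-Ichikawa, each adapted for at least four passages in each medium. Luminescence was read with CellTiter-Glo One after 48 h at 37°C. Viability means the per-plate percentage relative to DMSO wells, using cell-free wells as background.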

[2] = system: P12-Ichikawa; assay: as above
Outline: as §1

[3] = system: SEM cells; assay: as above
Outline: as §1

[4] = system: NOMO1; assay: AUC of viability dose-response curve (% viability x log10 dose units); higher = less sensitive
Outline: (§2)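 Leukemia cells adapted to each medium (500 or 1000 cells/well, 1536-well plates) were exposed to library compounds in DMSO for 48 h at 37°C at 11 threefold doses, 47 μM to 0.79 nM. Luminescence by CellTiter-Glo One was normalised per plate to DMSO and cell-free wells, then fitted with a four-parameter log-logistic curve on log10 dose. Curves above full viability were scaled and quality-control failures removed before area under the curve was integrated by trapezoidal rule.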

[5] = system: P12-Ichikawa; assay: as above
Outline: as §2

[6] = system: SEM cells; assay: as above
Outline: as §2

NC(=O)Nc1cc(-c2ccc(CN3CCOCC3)cc2)sc1C(N)=O
cell viability [%]
Conditions | [1] | [2] | [3]
HPLM + 10% dialyzed FBS, 0.000781 µM | 122 | 121 | 103
HPLM + 10% dialyzed FBS, 0.00234 µM | 112 | 119 | 113
HPLM + 10% dialyzed FBS, 0.00702 µM | 121 | 126 | 106
HPLM + 10% dialyzed FBS, 0.0211 µM | 132 | 117 | 108
HPLM + 10% dialyzed FBS, 0.0632 µM | 113 | 110 | 103
HPLM + 10% dialyzed FBS, 0.19 µM | 68.3 | 19.7 | 32.9
HPLM + 10% dialyzed FBS, 0.569 µM | 71.7 | 8.91 | 33.3
HPLM + 10% dialyzed FBS, 1.71 µM | 91.5 | 8.7 | 22.2
HPLM + 10% dialyzed FBS, 5.12 µM | 84.6 | 7.42 | 12.9
HPLM + 10% dialyzed FBS, 15.4 µM | 74.9 | 7.74 | 11.5
HPLM + 10% dialyzed FBS, 46.1 µM | 48.4 | 17.1 | 8.44
RPMI 5 mM glucose + 10% FBS, 0.000781 µM | 100 | 104 | 118
RPMI 5 mM glucose + 10% FBS, 0.00234 µM | 113 | 107 | 120
RPMI 5 mM glucose + 10% FBS, 0.00702 µM | 126 | 110 | 133
RPMI 5 mM glucose + 10% FBS, 0.0211 µM | 101 | 111 | 116
RPMI 5 mM glucose + 10% FBS, 0.0632 µM | 97.6 | 94.9 | 111
RPMI 5 mM glucose + 10% FBS, 0.19 µM | 50 | 32.1 | 20.2
RPMI 5 mM glucose + 10% FBS, 0.569 µM | 50.8 | 11.5 | 19.9
RPMI 5 mM glucose + 10% FBS, 1.71 µM | 45.9 | 8.89 | 17.1
RPMI 5 mM glucose + 10% FBS, 5.12 µM | 52.1 | 8.7 | 10.8
RPMI 5 mM glucose + 10% FBS, 15.4 µM | 58.5 | 10 | 6.3
RPMI 5 mM glucose + 10% FBS, 46.1 µM | 49.6 | 18.6 | 6.6
RPMI 5 mM glucose + 10% dialyzed FBS, 0.000781 µM | 107 | 117 | 104
RPMI 5 mM glucose + 10% dialyzed FBS, 0.00234 µM | 99.3 | 114 | 110
RPMI 5 mM glucose + 10% dialyzed FBS, 0.00702 µM | 108 | 121 | 109
RPMI 5 mM glucose + 10% dialyzed FBS, 0.0211 µM | 108 | 115 | 108
RPMI 5 mM glucose + 10% dialyzed FBS, 0.0632 µM | 101 | 120 | 91.2
RPMI 5 mM glucose + 10% dialyzed FBS, 0.19 µM | 55.5 | 26.9 | 22.9
RPMI 5 mM glucose + 10% dialyzed FBS, 0.569 µM | 46.2 | 17.8 | 21.6
RPMI 5 mM glucose + 10% dialyzed FBS, 1.71 µM | 47.8 | 19.4 | 14.5
RPMI 5 mM glucose + 10% dialyzed FBS, 5.12 µM | 56 | 19 | 7.42
RPMI 5 mM glucose + 10% dialyzed FBS, 15.4 µM | 58.3 | 21.2 | 7.32
RPMI 5 mM glucose + 10% dialyzed FBS, 46.1 µM | 37.2 | 33.4 | 5.7

AUC of viability dose-response curve
Conditions | [4] | [5] | [6]
HPLM + 10% dialyzed FBS | 369 | 236 | 262
RPMI 5 mM glucose + 10% FBS | 331 | 246 | 240
RPMI 5 mM glucose + 10% dialyzed FBS | 338 | 266 | 240

CC[C@@]1(O)C[C@H](O[C@H]2C[C@H](N(C)C)[C@H](O[C@H]3C[C@H](O)[C@H](O[C@H]4CCC(=O)[C@H](C)O4)[C@H](C)O3)[C@H](C)O2)c2c(cc3c(c2O)C(=O)c2c(O)cccc2C3=O)[C@H]1C(=O)OC
cell viability [%]
Conditions | [1] | [2] | [3]
HPLM + 10% dialyzed FBS, 0.000781 µM | 109 | 94.5 | 79.8
HPLM + 10% dialyzed FBS, 0.00234 µM | 106 | 104 | 68.5
HPLM + 10% dialyzed FBS, 0.00702 µM | 106 | 97 | 86.2
HPLM + 10% dialyzed FBS, 0.0211 µM | 106 | 102 | 77.9
HPLM + 10% dialyzed FBS, 0.0632 µM | 122 | 103 | 48.4
HPLM + 10% dialyzed FBS, 0.19 µM | 101 | 106 | 50
HPLM + 10% dialyzed FBS, 0.569 µM | 109 | 109 | 26.5
HPLM + 10% dialyzed FBS, 1.71 µM | 82 | 99.9 | 11.4
HPLM + 10% dialyzed FBS, 5.12 µM | 67 | 94.5 | 13.5
HPLM + 10% dialyzed FBS, 15.4 µM | 78.5 | 85.5 | 24
HPLM + 10% dialyzed FBS, 46.1 µM | 71.9 | 90.1 | 15.8
RPMI 5 mM glucose + 10% FBS, 0.000781 µM | 95.7 | 94.7 | 81
RPMI 5 mM glucose + 10% FBS, 0.00234 µM | 102 | 96.5 | 65.9
RPMI 5 mM glucose + 10% FBS, 0.00702 µM | 95.6 | 96.8 | 85.2
RPMI 5 mM glucose + 10% FBS, 0.0211 µM | 97.6 | 98.7 | 72.5
RPMI 5 mM glucose + 10% FBS, 0.0632 µM | 106 | 102 | 46.2
RPMI 5 mM glucose + 10% FBS, 0.19 µM | 93.8 | 99 | 54.4
RPMI 5 mM glucose + 10% FBS, 0.569 µM | 95.6 | 97.2 | 32.7
RPMI 5 mM glucose + 10% FBS, 1.71 µM | 64.2 | 73.2 | 18.1
RPMI 5 mM glucose + 10% FBS, 5.12 µM | 76.6 | 75.7 | 23.2
RPMI 5 mM glucose + 10% FBS, 15.4 µM | 75.8 | 63.9 | 20.2
RPMI 5 mM glucose + 10% FBS, 46.1 µM | 85 | 53.5 | 19.5
RPMI 5 mM glucose + 10% dialyzed FBS, 0.000781 µM | 91.5 | 95.5 | 85.5
RPMI 5 mM glucose + 10% dialyzed FBS, 0.00234 µM | 84.7 | 91.1 | 48.6
RPMI 5 mM glucose + 10% dialyzed FBS, 0.00702 µM | 94.4 | 90.8 | 83.7
RPMI 5 mM glucose + 10% dialyzed FBS, 0.0211 µM | 98.1 | 93.5 | 66.7
RPMI 5 mM glucose + 10% dialyzed FBS, 0.0632 µM | 102 | 94.9 | 46.2
RPMI 5 mM glucose + 10% dialyzed FBS, 0.19 µM | 90.4 | 106 | 51.3
RPMI 5 mM glucose + 10% dialyzed FBS, 0.569 µM | 93.9 | 98.7 | 26.2
RPMI 5 mM glucose + 10% dialyzed FBS, 1.71 µM | 67.7 | 84.2 | 11.8
RPMI 5 mM glucose + 10% dialyzed FBS, 5.12 µM | 71.6 | 78 | 12.2
RPMI 5 mM glucose + 10% dialyzed FBS, 15.4 µM | 75.3 | 76.8 | 15.4
RPMI 5 mM glucose + 10% dialyzed FBS, 46.1 µM | 72.1 | 63.3 | 12.9

AUC of viability dose-response curve
Conditions | [4] | [5] | [6]
HPLM + 10% dialyzed FBS | 426 | 463 | 217
RPMI 5 mM glucose + 10% FBS | 430 | 417 | 225
RPMI 5 mM glucose + 10% dialyzed FBS | 410 | 425 | 200

CC(C)[C@H](CO)Nc1nc(Nc2cccc(Cl)c2)c2ncn(C(C)C)c2n1
cell viability [%]
Conditions | [1] | [2] | [3]
HPLM + 10% dialyzed FBS, 0.000781 µM | – | 98.7 | 88.8
HPLM + 10% dialyzed FBS, 0.00234 µM | – | 112 | 88.2
HPLM + 10% dialyzed FBS, 0.00702 µM | – | 113 | 97.6
HPLM + 10% dialyzed FBS, 0.0211 µM | – | 115 | 101
HPLM + 10% dialyzed FBS, 0.0632 µM | – | 113 | 110
HPLM + 10% dialyzed FBS, 0.19 µM | – | 112 | 99.4
HPLM + 10% dialyzed FBS, 0.569 µM | – | 107 | 69.8
HPLM + 10% dialyzed FBS, 1.71 µM | – | 104 | 49.4
HPLM + 10% dialyzed FBS, 5.12 µM | – | 45.9 | 3.37
HPLM + 10% dialyzed FBS, 15.4 µM | – | 26.6 | 1.22
HPLM + 10% dialyzed FBS, 46.1 µM | – | 8.74 | 2.26
RPMI 5 mM glucose + 10% FBS, 0.000781 µM | – | 110 | 86.7
RPMI 5 mM glucose + 10% FBS, 0.00234 µM | – | 109 | 112
RPMI 5 mM glucose + 10% FBS, 0.00702 µM | – | 120 | 101
RPMI 5 mM glucose + 10% FBS, 0.0211 µM | – | 124 | 95.4
RPMI 5 mM glucose + 10% FBS, 0.0632 µM | – | 125 | 71
RPMI 5 mM glucose + 10% FBS, 0.19 µM | – | 115 | 86.4
RPMI 5 mM glucose + 10% FBS, 0.569 µM | – | 118 | 21.6
RPMI 5 mM glucose + 10% FBS, 1.71 µM | – | 118 | 4.3
RPMI 5 mM glucose + 10% FBS, 5.12 µM | – | 76 | 1.34
RPMI 5 mM glucose + 10% FBS, 15.4 µM | – | 42 | 0.473
RPMI 5 mM glucose + 10% FBS, 46.1 µM | – | 10.2 | 1.1
RPMI 5 mM glucose + 10% dialyzed FBS, 0.000781 µM | 111 | 97.7 | 98.6
RPMI 5 mM glucose + 10% dialyzed FBS, 0.00234 µM | 124 | 110 | 107
RPMI 5 mM glucose + 10% dialyzed FBS, 0.00702 µM | 127 | 112 | 91.5
RPMI 5 mM glucose + 10% dialyzed FBS, 0.0211 µM | 125 | 117 | 104
RPMI 5 mM glucose + 10% dialyzed FBS, 0.0632 µM | 124 | 115 | 106
RPMI 5 mM glucose + 10% dialyzed FBS, 0.19 µM | 112 | 106 | 93.5
RPMI 5 mM glucose + 10% dialyzed FBS, 0.569 µM | 123 | 93.4 | 35.7
RPMI 5 mM glucose + 10% dialyzed FBS, 1.71 µM | 84.2 | 102 | 18.9
RPMI 5 mM glucose + 10% dialyzed FBS, 5.12 µM | 12.6 | 58.5 | 1.89
RPMI 5 mM glucose + 10% dialyzed FBS, 15.4 µM | 6.44 | 18.2 | 0.704
RPMI 5 mM glucose + 10% dialyzed FBS, 46.1 µM | 3.06 | 4.68 | 1.74

AUC of viability dose-response curve
Conditions | [4] | [5] | [6]
HPLM + 10% dialyzed FBS | 304 | 385 | 316
RPMI 5 mM glucose + 10% FBS | 342 | 404 | 255
RPMI 5 mM glucose + 10% dialyzed FBS | 351 | 387 | 284
